What was measured:
Assay type in all cases: cell-based
human vulvar fibroblasts [1] = experiment: In vitro LPV model: SPM pre-treatment of patient vestibular/vulvar fibroblasts before inflammatory stimulation, IL-6 and PGE2 by ELISA/EIA; details: for effect on proinflammatory mediators linked to pain, initial tests: pre-treatment strategy, human vulvar fibroblasts; for IL-6 production / PGE2 production: pre-treated 18 h at 5 nM, again 30 min prior to activation, IL-1β 10 pg/ml 48 h, booster at 24 h; for IL-6 production: FIG. 23A; for PGE2 production: FIG. 23B; for prostaglandin E2 (PGE2) production / interleukin-6 (IL-6) production: pre-treated 10 hours with 5 nM SPM, vestibular and external vulvar fibroblasts; for prostaglandin E2 (PGE2) production: then IL-1β 10 pg/ml 48 hr, FIG. 5A; for interleukin-6 (IL-6) production: then bradykinin 100 nM 48 hr, FIG. 5B
Experimental: (§1) FIGS. 5A, 5B, 5C, and 5D are a set of diagrams showing that PGE2 and IL-6 production is reduced by SPMs. Patient vestibular or vulvar fibroblasts were pre-treated for 10 hours with Lipoxin A4 (LxA4), Resolvin D2 (RvD2), (7R)-Maresin 1 or epi(7S)-Maresin 1 at a 5 nM concentration, then activated with IL-1β (Panel A; 10 pg/ml) or bradykinin (Panel B; 100 nM) for 48 hr. Culture media were collected and analyzed for PGE2 (Panel A) or IL-6 (Panel B) content. Patient fibroblasts were also activated first with IL-1β for 30 min then treated with 5 nM (7R)-Maresin 1 or LXA4 for 18 hours, followed by a booster dose for 6 hr. Culture media were collected and analyzed for PGE2 (Panel C) or IL-6 (Panel D) content. Mean+/−SEM of n=3, ANOVA *p<0.05 vs. activation only (no SPM).
FIGS. 23A and 23B are diagrams showing six SPMs are effective in reducing IL-6 and PGE2 production from fibroblasts when used as a pre-treatment and post-treatment. Patient vestibular or vulvar fibroblasts were pre-treated for 18 h with Resolvin D3 (RvD3), Resolvin D4 (RvD4), Resolvin D5 (RvD5), Resolvin E1 (RvE1), Protectin D1 or Protectin DX at a 5 nM concentration, pre-treated again for 30 min prior to activation, then activated with 10 pg/ml IL-1β for 48 h with a booster SPM dose at 24 h. Culture media were collected and analyzed for IL-6 (Panel A) and PGE2 (Panel B). Mean+/−SEM of n=6 (two cases run in triplicate), ANOVA *p<0.05 vs. activation only (IL-1b).
(§2) In this example, a fibroblast-based in vitro LPV model was established. Briefly, fibroblast strains were obtained from two regions (FIG. 1) of the lower genital tract of localized provoked vulvodynia (LPV) cases and pain-free controls in the manner described in Falsetta et al. Am J Obstet Gynecol 2015, vol. 213, pp. 38 e1-12 and Foster et al., Pain 2015, vol. 156, pp. 386-96.
(§3) Over 30 paired fibroblast strains obtained from LPV-afflicted cases (fulfilling Friedrich's Criteria)^25 and age/race-matched (critical variables influencing LPV),^26, 27 pain-free controls were obtained. All subjects who contributed to the library were premenopausal, denied oral corticosteroids, non-steroidal, immunomodulatory, or anti-inflammatory medication use, and reported an absence of systemic/cutaneous inflammatory conditions at the time of sample collection. Mechanical pain thresholds were determined (via a method of limits) (0.5-5 N) using a Wagner algometer. Fibroblast identity was confirmed by microscopy and fibroblast markers (vimentin, collagen); only low passage (˜4) cells are used.
(§4) Synthesized, purified and commercially available SPMs from each known SPM class (E-series Resolvins, D-series Resolvins, Maresins, Protectins and Lipoxins) at low/nanomolar concentrations (1-100 nM) were tested. […] The inventors used one of two treatment regimens proven effective in vulvar fibroblasts and other cells: 1) overnight pre-treatment, followed by another treatment 30 min prior to stimulation with proinflammatory stimuli for 48 hr with a third dose of SPMs at 24 hr post-challenge, or 2) post-treatment with SPMs after a 30 min pre-treatment with inflammatory stimuli, followed by a booster dose 18 hr later. Both treatment regimens are of interest, as SPMs are active throughout the inflammatory process.^5-7 Even SPMs administered after LPV onset are likely to prevent the worsening or spread of LPV pain.
Next, SPMs from other classes (E series Resolvins and Protectins), as well as additional SPMs from classes containing members that are effective in reducing IL-6 and PGE2 production (e.g., Maresins) were investigated in similar screen. […] SPMs that were effective in reducing more than one proinflammatory mediator in at least 2 tests can be examined for further testing using a preclinical mouse model. […] These additional effective SPMs include Resolvin D3, Resolvin D4, Resolvin D5, Resolvin E1, Protectin D1, and Protectin DX. […]

human vulvar fibroblasts [2] = experiment: In vitro LPV model: SPM post-treatment of already activated patient fibroblasts, IL-6 and PGE2; details: post-treatment: IL-1β 30 min; for IL-6 production / PGE2 production: then 5 nM 18 hours, booster dose 24 hr; for IL-6 production: FIG. 24A; for PGE2 production: FIG. 24B
Experimental: as §1
FIGS. 24A and 24B are diagrams showing that six SPMs are effective in reducing IL-6 and PGE2 production from fibroblasts when used as a post-treatment. Patient vestibular or vulvar fibroblasts were activated first with IL-1β for 30 min then treated with RvD3, RvD4, RvD5, RvE1, Protectin D1 or Protectin DX at a 5 nM concentration for 18 hours, followed by a booster SPM dose for 24 hr. Culture media were collected and analyzed for IL-6 (Panel A) and PGE2 (Panel B) content. Mean+/−SEM of n=6 (two cases run in triplicate), ANOVA *p<0.05 vs. activation only (IL-1b). […] The magnitude of reduction was not as great as pre-treatment, but equally significant as the reduction from pre-treatment regimens.
as §2, §3, §4

Mouse vulvar tissue = experiment: Mouse vulvar explants (4 mm punch biopsy), IL-1β-stimulated PGE2 production; details: pre-treatment 18 hours, then IL-1β 10 pg/ml 18 hours; range of doses, as low as 1 nM; FIG. 6
Experimental: FIG. 6 is a diagram showing that SPMs inhibit PGE2 production from mouse vulvar tissue. Mouse vulvar tissue (4 mm punch biopsies) was collected and bisected then pre-treated in culture medium with either Maresin 1 or RvD2 at indicated concentrations for 18 hours, followed by an additional 18 hours stimulation with IL-1β (10 pg/ml). Culture medium was collected and analyzed for PGE2 content. Mean+/−SEM; n=3 replicate cultures. ANOVA * p<0.05 vs. vehicle.
Although SPM structure and therapeutic efficacy is conserved across species,^5-7 inventors first confirmed that mouse vulvar tissues responded to SPM treatment in vitro by culturing mouse vulvar explants (4 mm punch biopsy). The explants were stimulated with IL-1, and then assays were carried to assess the ability of Maresin 1 or RvD2 to reduce PGE2 production under the established pre-treatment regimen.

| Structure (SMILES) | effect on proinflammatory mediators linked to pain, initial tests (human vulvar fibroblasts [1]) | IL-6 production (human vulvar fibroblasts [1]) | PGE2 production (human vulvar fibroblasts [1]) | IL-6 production (human vulvar fibroblasts [2]) | PGE2 production (human vulvar fibroblasts [2]) | further results |
| --- | --- | --- | --- | --- | --- | --- |
| CC/C=C\C[C@@H](O)/C=C/C=C\C=C\C=C\[C@@H](O)[C@@H](O)C/C=C\CCC(=O)O [AT-Resolvin D1, 7S,8R,17R-trihydroxy-docosa-4Z,9E,11E,13Z,15E,19Z-hexaenoic acid] | no striking effects | – | – | – | – | – |
| CC[C@@H](O)/C=C/C=C\C[C@@H](O)/C=C/C=C/C=C\[C@@H](O)CCCC(=O)O [Resolvin E1, 5S,12,18-trihydroxy-eicosa-6Z,8E,10E,14Z,16E-pentaenoic acid] | – | showed efficacy | showed efficacy | showed efficacy | showed efficacy | – |
| CC/C=C\C[C@H](O)/C=C/C=C\C=C\C=C\[C@@H](O)[C@@H](O)C/C=C\CCC(=O)O [Resolvin D1, 7S,8R,17S-trihydroxy-docosa-4Z,9E,11E,13Z,15E,19Z-hexaenoic acid] | no striking effects | – | – | – | – | – |
| CC/C=C\C[C@H](O)/C=C/C=C\C/C=C\C/C=C\C/C=C\CCC(=O)O [17(S)-HDHA, 17(S)-hydroxy docosahexaenoic acid] | no striking effects | – | – | – | – | – |
| CCCCC[C@H](O)[C@H](O)/C=C/C=C/C=C\C=C\[C@@H](O)CCCC(=O)O [Lipoxin B4] | no striking effects | – | – | – | – | – |
| CC/C=C\C[C@H](O)[C@H](O)/C=C/C=C/C=C\C=C\[C@@H](O)C/C=C\CCC(=O)O [Resolvin D2, 7S,16R,17S-trihydroxy-docosa-4Z,8E,10Z,12E,14E,19Z-hexaenoic acid] | – | – | – | – | – | prostaglandin E2 (PGE2) production (human vulvar fibroblasts [1]): significantly reduced; interleukin-6 (IL-6) production (human vulvar fibroblasts [1]): significantly reduced; PGE2 responses following IL-1β treatment (Mouse vulvar tissue): significantly suppressed |
| CC/C=C\C/C=C\C[C@H](O)\C=C/C=C/C=C/[C@@H](O)C/C=C\CCC(=O)O [epi-Maresin 1, 7S,14S-docosa-4Z,8E,10E,12Z,16Z,19Z-hexaenoic acid] | – | – | – | – | – | prostaglandin E2 (PGE2) production (human vulvar fibroblasts [1]): significantly reduced; interleukin-6 (IL-6) production (human vulvar fibroblasts [1]): significantly reduced |
| CC/C=C\C[C@H](O)/C=C/C=C\C=C\[C@@H](O)C/C=C\C/C=C\CCC(=O)O [Protectin DX] | – | showed efficacy | showed efficacy | showed efficacy | showed efficacy | – |
| CCCCC[C@H](O)/C=C/C=C\C=C\C=C\[C@@H](O)[C@@H](O)CCCC(=O)O [Lipoxin A4, 5S,6R,15S-trihydroxy-eicosa-7E,9E,11Z,13E-tetraenoic acid] | – | – | – | – | – | prostaglandin E2 (PGE2) production (human vulvar fibroblasts [1]): significantly reduced; interleukin-6 (IL-6) production (human vulvar fibroblasts [1]): significantly reduced; PGE2 levels (human vulvar fibroblasts [2]; then 5 nM SPM 18 hours, booster dose 6 hr, FIG. 5C): significantly reduced; IL-6 levels (human vulvar fibroblasts [2]; then 5 nM SPM 18 hours, booster dose 6 hr, FIG. 5D): significantly reduced |
| CC/C=C\C[C@H](O)/C=C/C=C\C\C=C/C=C/C=C/[C@@H](O)[C@@H](O)CCC(=O)O [Resolvin D4, 4S,5,17S-trihydroxy-docosa-6E,8E,10Z,13Z,15E,19Z-hexaenoic acid] | – | showed efficacy | showed efficacy | showed efficacy | showed efficacy | – |
| CC/C=C\C[C@H](O)\C=C/C=C/C=C/[C@H](O)C/C=C\C/C=C\CCC(=O)O [Protectin D1, 10R,17S-dihydroxy-docosa-4Z,7Z,11E,13E,15Z,19Z-hexaenoic acid] | – | showed efficacy | showed efficacy | showed efficacy | showed efficacy | – |
| CC/C=C\C[C@H](O)/C=C/C=C\C/C=C\C=C\[C@@H](O)C/C=C\CCC(=O)O [Resolvin D5] | – | showed efficacy | showed efficacy | showed efficacy | showed efficacy | – |
| CC/C=C\C[C@H](O)/C=C/C=C\C[C@@H](O)/C=C/C=C/C=C\[C@@H](O)CCC(=O)O [Resolvin D3, 4S,11R,17S-trihydroxy-docosa-5Z,7E,9E,13Z,15E,19Z-hexaenoic acid] | – | showed efficacy | showed efficacy | showed efficacy | showed efficacy | – |

From patent US20220040136A1, “TREATMENT OF VULVOVAGINAL DISORDERS” (University of Rochester, priority 2018, published 2022)
